Measured values published in patent US7812022B2 (GlaxoSmithKline LLC, priority 2004, dated 2010).
pIC50: −log10 of the molar value. Like-named read-outs stand apart in the source and are kept apart here.

Legend:
ErbB2 or EGFR = target: T1, ErbB2 or EGFR; assay: ErbB family substrate phosphorylation enzyme assay (HTRF), Method A or Method B; type: biochemical
T1 construct: enzymes purified from a baculovirus expression system; Reagent production was conducted essentially as described in Brignola, P. S., et al, (2002) J. Biol. Chem. 277(2): 1576-1585
Procedure, shortened: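 Baculovirus-expressed EGFR or ErbB2 (0.8 or 10 nM in enzyme mix) phosphorylates biotinylated Peptide C with 20 µM ATP and 0.8 µM peptide (substrate-mix levels), MnCl2, pH 7.5. Reaction ran 90 min at 20 °C with EDTA stop and HTRF anti-phosphotyrosine read. Method A: enzyme added last; Method B: 1 h enzyme–compound preincubation.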

[1] = system: BT474 and HN5 tumor cell lines; assay: Methylene blue growth inhibition assay (cellular Method A); type: cell-based, Human; details: 3 days, read-out: Activity (Method): growth inhibition IC50 class
Procedure, shortened: (§1)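 Colo205, BT474 and HN5 cells in DMEM/10% FBS (BT474 10,000, HN5 3,000 cells/well) treated next day with compound in DMEM, 0.3% final DMSO, for 3 days at 37° C. Biomass stained with methylene blue, solubilized, read at OD 620; IC50 interpolated by nonlinear regression from % inhibition versus vehicle.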

Colo205 tumor cell lines = assay: Methylene blue growth inhibition assay (cellular Method A), Colo205; type: cell-based, Human; details: 3 days, read-out: Activity (Method): growth inhibition IC50 class
Procedure, shortened: as §1

[2] = Method B: enzyme mix pre-incubated with compound 1 hour at 20° C., started with substrate mix
[3] = Method A: substrate mix added first, reaction started with enzyme mix

pIC50 ([1]; Homo sapiens, BT-474, 72 h)	pIC50 (Colo205 tumor cell lines; Homo sapiens, COLO 205, 72 h)	pIC50 [1]	pIC50 (Colo205 tumor cell lines)	Compound	Activity (Method): pIC50 class against ErbB2 or EGFR (ErbB2 or EGFR; [2])	Activity (Method): pIC50 class against ErbB2 or EGFR (ErbB2 or EGFR; [3])
> 7.00	6.00 to 7.00	–	–	CN1CCN(c2cccc(Nc3nccc(-c4c(-c5cccc(NC(=O)c6c(F)cccc6F)c5)nn5ccccc45)n3)c2)CC1 [Example 109, 2,6-Difluoro-N-{3-[3-(2-{[3-(4-methyl-1-piperazinyl)-phenyl]amino}-4-pyrimidinyl)pyrazolo[1,5-a]pyridin-2-yl]phenyl}benzamide]	+++ (B) (at least one pIC50 measurement of greater than 7 against either ErbB2 or EGFR)	–
6.00 to 7.00	6.00 to 7.00	–	–	CN(C)CC(=O)Nc1cccc(Nc2nccc(-c3c(-c4cccc(NC(=O)c5c(F)cccc5F)c4)nn4ccccc34)n2)c1 [Example 110, N-(3-{3-[2-({3-[(N,N-dimethylglycyl)amino]phenyl}-amino)-4-pyrimidinyl]pyrazolo[1,5-a]pyridin-2-yl}phenyl)-2,6-difluorobenzamide]	+++ (B) (at least one pIC50 measurement of greater than 7 against either ErbB2 or EGFR)	–
> 7.00	6.00 to 7.00	–	–	CS(=O)(=O)Cc1ccc(Nc2nccc(-c3c(-c4cccc(NC(=O)c5c(F)cccc5F)c4)nn4ccccc34)n2)cc1 [Example 116, 2,6-Difluoro-N-(3-{3-[2-({4-[(methylsulfonyl)methyl]-phenyl}amino)-4-pyrimidinyl]pyrazolo[1,5-a]pyridin-2-yl}phenyl)benzamide]	+++ (B) (at least one pIC50 measurement of greater than 7 against either ErbB2 or EGFR)	–
> 7.00	6.00 to 7.00	–	–	NS(=O)(=O)c1cccc(Nc2nccc(-c3c(-c4cccc(NC(=O)c5c(F)cccc5F)c4)nn4ccccc34)n2)c1 [Example 118, N-{3-[3-(2-{[3-(aminosulfonyl)phenyl]amino}-4-pyrimidinyl)pyrazolo[1,5-a]pyridin-2-yl]phenyl}-2,6-difluorobenzamide]	+++ (B) (at least one pIC50 measurement of greater than 7 against either ErbB2 or EGFR)	–
> 7.00	6.00 to 7.00	–	–	NS(=O)(=O)CCc1cccc(Nc2nccc(-c3c(-c4cccc(NC(=O)c5c(F)cccc5F)c4)nn4ccccc34)n2)c1 [Example 119, N-(3-{3-[2-({3-[2-(aminosulfonyl)ethyl]phenyl}-amino)-4-pyrimidinyl]pyrazolo[1,5-a]pyridin-2-yl}phenyl)-2,6-difluorobenzamide]	+++ (B) (at least one pIC50 measurement of greater than 7 against either ErbB2 or EGFR)	–
6.00 to 7.00	6.00 to 7.00	–	–	COc1cc(Nc2nccc(-c3c(-c4cccc(NC(=O)c5c(F)cccc5F)c4)nn4ccccc34)n2)cc(OC)c1OC [Example 120, 2,6-Difluoro-N-{3-[3-(2-{[3,4,5-tris(methyloxy)-phenyl]amino}-4-pyrimidinyl)pyrazolo[1,5-a]pyridin-2-yl]phenyl}benzamide]	+++ (B) (at least one pIC50 measurement of greater than 7 against either ErbB2 or EGFR)	–
6.00 to 7.00	< 6.00	–	–	CCS(=O)(=O)c1ccc(OC)c(Nc2nccc(-c3c(-c4cccc(NC(=O)c5c(F)cccc5F)c4)nn4ccccc34)n2)c1 [Example 121, N-{3-[3-(2-{[5-(ethylsulfonyl)-2-(methyloxy)phenyl]-amino}-4-pyrimidinyl)pyrazolo[1,5-a]pyridin-2-yl]phenyl}-2,6-difluorobenzamide]	–	+++ (A) (at least one pIC50 measurement of greater than 7 against either ErbB2 or EGFR)
–	–	6.00 to 7.00	6.00 to 7.00	COc1cc(CS(C)(=O)=O)ccc1Nc1nccc(-c2c(-c3cccc(NC(=O)c4c(F)cccc4F)c3)nn3ccccc23)n1 [Example 122]	+++ (B) (at least one pIC50 measurement of greater than 7 against either ErbB2 or EGFR)	–
> 7.00	6.00 to 7.00	–	–	CN(C)CCCOc1ccc(Nc2nccc(-c3c(-c4cccc(NC(=O)c5c(F)cccc5F)c4)nn4ccccc34)n2)cc1Cl [Example 126, N-[3-(3-{2-[(3-Chloro-4-{[3-(dimethylamino)propyl]-oxy}phenyl)amino]-4-pyrimidinyl}pyrazolo[1,5-a]pyridin-2-yl)phenyl]-2,6-difluorobenzamide]	+++ (B) (at least one pIC50 measurement of greater than 7 against either ErbB2 or EGFR)	–
> 7.00	6.00 to 7.00	–	–	O=C(Nc1cccc(-c2nn3ccccc3c2-c2ccnc(Nc3ccc(OCCN4CCOCC4)c(Cl)c3)n2)c1)c1c(F)cccc1F [Example 127, N-[3-(3-{2-[(3-Chloro-4-{[2-(4-morpholinyl)ethyl]-oxy}phenyl)amino]-4-pyrimidinyl}pyrazolo[1,5-a]pyridin-2-yl)phenyl]-2,6-difluorobenzamide]	+++ (B) (at least one pIC50 measurement of greater than 7 against either ErbB2 or EGFR)	–
> 7.00	6.00 to 7.00	–	–	CCN(CC)CCCOc1ccc(Nc2nccc(-c3c(-c4cccc(NC(=O)c5c(F)cccc5F)c4)nn4ccccc34)n2)cc1F [Example 131, N-[3-(3-{2-[(4-{[3-(Diethylamino)propyl]oxy}-3-fluorophenyl)amino]-4-pyrimidinyl}pyrazolo[1,5-a]pyridin-2-yl)phenyl]-2,6-difluorobenzamide]	+++ (B) (at least one pIC50 measurement of greater than 7 against either ErbB2 or EGFR)	–
> 7.00	> 7.00	–	–	CN1CCC[C@H]1COc1ccc(Nc2nccc(-c3c(-c4cccc(NC(=O)c5c(F)cccc5F)c4)nn4ccccc34)n2)cc1F [Example 132, 2,6-Difluoro-N-{3-[3-(2-{[3-fluoro-4-({[(2S)-1-methyl-2-pyrrolidinyl]methyl}oxy)phenyl]amino}-4-pyrimidinyl)pyrazolo[1,5-a]pyridin-2-yl]phenyl}benzamide]	+++ (B) (at least one pIC50 measurement of greater than 7 against either ErbB2 or EGFR)	–
> 7.00	6.00 to 7.00	–	–	O=C(Nc1cccc(-c2nn3ccccc3c2-c2ccnc(Nc3ccc(OCCN4CCCC4=O)c(F)c3)n2)c1)c1c(F)cccc1F [Example 133, 2,6-Difluoro-N-[3-(3-{2-[(3-fluoro-4-{[2-(2-oxo-1-pyrrolidinyl)ethyl]oxy}phenyl)amino]-4-pyrimidinyl}pyrazolo[1,5-a]pyridin-2-yl)phenyl]benzamide]	+++ (B) (at least one pIC50 measurement of greater than 7 against either ErbB2 or EGFR)	–
> 7.00	< 6.00	–	–	O=C(Nc1cccc(-c2nn3ccccc3c2-c2ccnc(Nc3ccc(OCCN4CCCCC4)c(F)c3)n2)c1)c1c(F)cccc1F [Example 134, 2,6-Difluoro-N-[3-(3-{2-[(3-fluoro-4-{[2-(1-piperidinyl)ethyl]oxy}phenyl)amino]-4-pyrimidinyl}pyrazolo[1,5-a]pyridin-2-yl)phenyl]benzamide]	–	+++ (A) (at least one pIC50 measurement of greater than 7 against either ErbB2 or EGFR)
> 7.00	6.00 to 7.00	–	–	O=C(Nc1cccc(-c2nn3ccccc3c2-c2ccnc(Nc3cccc(OCCN4CCCC4)c3)n2)c1)c1c(F)cccc1F [Example 136, 2,6-Difluoro-N-[3-(3-{2-[(3-{[2-(1-pyrrolidinyl)ethyl]oxy}phenyl)amino]-4-pyrimidinyl}pyrazolo[1,5-a]pyridin-2-yl)phenyl]benzamide]	+++ (B) (at least one pIC50 measurement of greater than 7 against either ErbB2 or EGFR)	–
< 6.00	< 6.00	–	–	O=C(Nc1cccc(-c2nn3ccccc3c2-c2ccnc(Nc3ccccc3)n2)c1)c1ccc(Cl)cc1 [Example 142, 4-Chloro-N-(3-{3-[2-(phenylamino)-4-pyrimidinyl]pyrazolo[1,5-a]pyridin-2-yl}phenyl)benzamide]	–	++ (A) (at least one pIC50 measurement greater than 6 against either ErbB2 or EGFR but no measurement greater than pIC50 of 7)
> 7.00	< 6.00	–	–	Cn1cccc1C(=O)Nc1cccc(-c2nn3ccccc3c2-c2ccnc(Nc3cccc(C#N)c3)n2)c1 [Example 150, N-{3-[3-(2-(3-Cyanophenyl)amino-4-pyrimidinyl)-pyrazolo[1,5-b]pyridin-2-yl]-phenyl}-1-methyl-1H-pyrrole-2-carboxamide]	+++ (B) (at least one pIC50 measurement of greater than 7 against either ErbB2 or EGFR)	–
6.00 to 7.00	< 6.00	–	–	Cc1cccc2c(-c3ccnc(Nc4cccc(F)c4)n3)c(-c3cccc(NC(=O)c4c(F)cccc4F)c3)nn12 [Example 156, 2,6-Difluoro-N-[3-(3-{2-[(3-fluorophenyl)amino]-pyrimidin-4-yl}-7-methylpyrazolo[1,5-a]pyridin-2-yl)phenyl]benzamide]	–	++ (A) (at least one pIC50 measurement greater than 6 against either ErbB2 or EGFR but no measurement greater than pIC50 of 7)
